From patent US20170052170A1, “NOVEL CELL LINES AND METHODS” (priority 2009, published 2017)

Key:
[1] = molecular target: T1, umami taste receptor (T1R1/T1R3) (Homo sapiens, UniProt Q7RTX0+Q7RTX1, C757R); experiment: Umami cell-based calcium flux assay, HEK293T cells expressing T1R1, T1R3 and mouse Gα15; conditions: FIG. 6; high density, coated plates, low glucose media, serum deprivation
T1 construct: expressed in transfected cells; host or cells: HEK293T (ATCC CRL-11268)
T1 sequence (Q7RTX1 21-841): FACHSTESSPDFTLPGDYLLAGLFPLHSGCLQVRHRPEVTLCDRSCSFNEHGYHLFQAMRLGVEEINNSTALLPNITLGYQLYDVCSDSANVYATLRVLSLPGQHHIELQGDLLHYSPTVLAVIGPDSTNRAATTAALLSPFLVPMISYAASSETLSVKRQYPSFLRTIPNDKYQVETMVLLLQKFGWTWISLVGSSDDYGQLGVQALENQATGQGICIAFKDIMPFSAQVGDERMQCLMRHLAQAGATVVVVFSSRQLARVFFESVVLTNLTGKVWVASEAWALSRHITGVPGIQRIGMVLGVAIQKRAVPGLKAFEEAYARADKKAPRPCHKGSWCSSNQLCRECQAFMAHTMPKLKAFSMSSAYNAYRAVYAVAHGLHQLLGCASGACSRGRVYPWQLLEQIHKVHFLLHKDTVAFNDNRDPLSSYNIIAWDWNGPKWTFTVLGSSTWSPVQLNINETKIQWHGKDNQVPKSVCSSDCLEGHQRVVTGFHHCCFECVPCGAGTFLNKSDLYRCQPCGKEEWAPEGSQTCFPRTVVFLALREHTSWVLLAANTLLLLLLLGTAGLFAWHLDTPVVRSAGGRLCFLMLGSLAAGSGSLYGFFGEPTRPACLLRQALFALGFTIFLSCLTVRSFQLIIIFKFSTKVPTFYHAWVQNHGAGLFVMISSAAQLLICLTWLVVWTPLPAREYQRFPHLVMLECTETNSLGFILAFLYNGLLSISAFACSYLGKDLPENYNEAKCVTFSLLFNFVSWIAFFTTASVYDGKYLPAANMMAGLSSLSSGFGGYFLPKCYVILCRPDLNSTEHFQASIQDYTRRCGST
T1 sequence (Q7RTX0 21-852 C757R): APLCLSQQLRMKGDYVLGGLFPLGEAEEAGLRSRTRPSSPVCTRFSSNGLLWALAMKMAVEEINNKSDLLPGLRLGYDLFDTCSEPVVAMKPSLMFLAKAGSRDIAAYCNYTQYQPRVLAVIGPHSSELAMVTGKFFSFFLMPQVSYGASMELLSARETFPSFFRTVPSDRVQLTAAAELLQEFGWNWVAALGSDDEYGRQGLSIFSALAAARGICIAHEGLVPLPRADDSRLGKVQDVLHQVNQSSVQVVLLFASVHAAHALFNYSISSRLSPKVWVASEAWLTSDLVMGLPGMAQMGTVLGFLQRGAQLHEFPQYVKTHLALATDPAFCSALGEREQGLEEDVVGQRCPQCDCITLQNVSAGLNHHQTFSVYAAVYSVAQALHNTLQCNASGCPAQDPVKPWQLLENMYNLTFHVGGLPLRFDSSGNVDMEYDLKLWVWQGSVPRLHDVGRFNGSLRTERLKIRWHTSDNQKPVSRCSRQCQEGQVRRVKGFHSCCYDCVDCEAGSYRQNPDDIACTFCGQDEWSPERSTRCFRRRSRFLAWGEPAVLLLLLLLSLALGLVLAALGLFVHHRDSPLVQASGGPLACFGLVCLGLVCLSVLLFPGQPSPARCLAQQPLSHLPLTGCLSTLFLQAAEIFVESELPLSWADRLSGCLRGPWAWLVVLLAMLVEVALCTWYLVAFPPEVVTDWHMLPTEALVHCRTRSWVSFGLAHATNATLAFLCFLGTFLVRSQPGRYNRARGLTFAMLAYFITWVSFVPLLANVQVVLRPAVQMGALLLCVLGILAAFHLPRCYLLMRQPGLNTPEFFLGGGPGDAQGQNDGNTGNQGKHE

[2] = molecular target: T2, sweet taste receptor (T1R2/T1R3) (Homo sapiens, UniProt Q7RTX0+Q8TE23, C757R/I191V/I486V/R317G); experiment: Sweet cell-based calcium flux assay, HEK293T cells expressing T1R2, T1R3 and mouse Gα15
T2 construct: expressed in transfected cells; host or cells: HEK293T (ATCC CRL-11268)
T2 sequence (Q8TE23 20-839 I191V/R317G/I486V): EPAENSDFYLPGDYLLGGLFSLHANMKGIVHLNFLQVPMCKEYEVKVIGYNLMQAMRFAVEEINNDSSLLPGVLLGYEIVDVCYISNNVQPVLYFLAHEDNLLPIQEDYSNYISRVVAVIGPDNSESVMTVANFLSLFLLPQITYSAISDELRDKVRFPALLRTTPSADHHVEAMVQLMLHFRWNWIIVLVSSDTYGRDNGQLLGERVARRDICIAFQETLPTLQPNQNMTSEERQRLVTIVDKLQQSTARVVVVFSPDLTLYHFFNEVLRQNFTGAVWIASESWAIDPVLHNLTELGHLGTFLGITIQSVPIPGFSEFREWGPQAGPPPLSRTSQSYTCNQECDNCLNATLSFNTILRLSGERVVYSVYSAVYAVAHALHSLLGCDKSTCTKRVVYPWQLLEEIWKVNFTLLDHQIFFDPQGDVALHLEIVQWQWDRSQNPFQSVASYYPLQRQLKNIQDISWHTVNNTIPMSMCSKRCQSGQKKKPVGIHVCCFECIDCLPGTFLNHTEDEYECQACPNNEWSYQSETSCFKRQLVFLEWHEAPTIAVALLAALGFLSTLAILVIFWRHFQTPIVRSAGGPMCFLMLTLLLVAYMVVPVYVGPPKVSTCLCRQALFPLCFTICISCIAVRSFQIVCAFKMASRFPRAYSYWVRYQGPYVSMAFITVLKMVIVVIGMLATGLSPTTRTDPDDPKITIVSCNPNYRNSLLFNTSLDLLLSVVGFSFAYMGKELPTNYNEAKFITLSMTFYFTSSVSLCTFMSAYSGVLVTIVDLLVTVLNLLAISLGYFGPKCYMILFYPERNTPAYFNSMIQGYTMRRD
T2 sequence (Q7RTX0 21-852 C757R): T1 sequence (Q7RTX0 21-852 C757R)
Excerpt: Plates are then loaded on a high throughput plate reader (Hamamatsu FDSS). […] Calcium flux is detected for 90 seconds.

O=C(CO)[C@@H](O)[C@H](O)[C@H](O)CO [fructose]
response of cells grown in the "Final" growth conditions [1]: not
EC50 [2]: < 4.3 mM
response of cells grown in the "Final" growth conditions ([2]; FIG. 20, high density, coated plates, low glucose media, serum deprivation): respond robustly
